Consider 14 compounds from ChEMBL document CHEMBL5120768, “Discovery of Anticancer Agents of Diverse Natural Origin” (J Nat Prod, 2022).

Experiment [1] relates to A2780. The experiment can be described thus: Antiproliferative activity against human A2780 cells. It is filed as functional, cell-based.
Experiment [2] concerns MCF7. The experiment can be described thus: Antiproliferative activity against human MCF7 cells. In kind it is functional, cell-based.
In experiment [3] the test system is MDA-MB-231. The experiment is described as follows: Antiproliferative activity against human MDA-MB-231 cells. It is filed as functional, cell-based.
Experiment [4] concerns MDA-MB-435. The experiment is described as follows: Antiproliferative activity against human MDA-MB-435 cells. It is filed as functional, cell-based.
A short description of experiment [5]: Antiproliferative activity against human CCD-112CoN cells after 72 hrs by SRB assay. In kind it is functional, cell-based. (Sulforhodamine B stains cellular protein and so reports cell mass.)
In experiment [6] the test system is MCF7. The experiment is described as follows: Antiproliferative activity against human MCF7 cells by SRB assay. It is filed as functional, cell-based.
The subject of experiment [7] is A2780. The experiment can be described thus: Antiproliferative activity against human A2780 cells by SRB assay. It is filed as functional, cell-based.
Experiment [8] deals with HT-29. The experiment is described as follows: Antiproliferative activity against human HT-29 cells after 3 days by SRB assay. In kind it is functional, cell-based. Conditions: HT-29, 72 h.
The nature of experiment [9]: Antiproliferative activity against human PC-3 cells after 3 days by SRB assay. In kind it is functional, cell-based.
The subject of a further experiment is OVCAR-3. The experiment is described as follows: Antiproliferative activity against human OVCAR-3 cells after 72 hrs by CellTiter 96 AQueous One Solution Cell Proliferation assay. To be noted: OVCAR-3, 72 h. In kind it is functional, cell-based.
Experiment [10] concerns MDA-MB-435. The experiment is described as follows: Antiproliferative activity against human MDA-MB-435 cells after 72 hrs by CellTiter 96 AQueous One Solution Cell Proliferation assay. It is filed as functional, cell-based. Conditions: MDA-MB-435, 72 h.
The subject of experiment [11] is HT-29. The experiment is described as follows: Antiproliferative activity against human HT-29 cells after 72 hrs by CellTiter 96 AQueous One Solution Cell Proliferation assay. In kind it is functional, cell-based. Conditions: HT-29, 72 h.
Experiment [12] has as its system MDA-MB-231. The experiment can be described thus: Antiproliferative activity against human MDA-MB-231 cells after 72 hrs by CellTiter 96 AQueous One Solution Cell Proliferation assay. Conditions: MDA-MB-231, 72 h. It is filed as functional, cell-based.
The next experiment addresses 20S proteasome. The experiment can be described thus: Inhibition of chymotrypsin-like activity of human erythrocytes 20S proteasome using Suc-LLVY-AMC as substrate and measured by fluorescence assay.

In general, IC50 refers to the concentration at which inhibition is half-maximal. Low readings indicate greater potency in that assay, high ones weaker potency in that assay. Take `CC(=O)C1=C(O)C=C2Oc3c(C(C)=O)c(O)c(C)c(O)c3C2(C)C1=O` (stereo not drawn): the IC50 in the experiment on A2780 [1] worked out at 3800 nM; in the experiment on MCF7 [2], 6800 nM. With `CCCC[C@H]1CCCC[C@H](C)[C@@H](O)c2cc(O)c(c(O)c2)[C@@H](CCCC)CCCC[C@H](C)[C@@H](O[C@@H]2OC[C@@H](O)[C@@H](O)[C@H]2O)c2cc(O)c1c(O)c2`, the IC50 with MDA-MB-231 [3] and in the experiment on MDA-MB-435 [4] was 600 nM throughout.

As to `CCCC[C@H]1CCCC[C@H](C)Cc2cc(O)c(c(O)c2)[C@@H](CCCC)CCCC[C@H](C)[C@@H](O[C@@H]2OC[C@@H](O)[C@@H](O)[C@H]2O)c2cc(O)c1c(O)c2`, the IC50 in the experiment with MDA-MB-231 [3] and in the experiment on MDA-MB-435 [4] was 600 nM each time. Compound `C[C@H]1O[C@@H](O[C@H]2CC[C@]3(C)[C@H]4CC[C@]5(C)[C@@H](C6=CC(=O)OC6)CC[C@]5(O)[C@@H]4CC[C@]3(O)C2)C[C@H](O)[C@@H]1O[C@@H]1O[C@H](CO)[C@@H](O)[C@H](O)[C@H]1O` gave an IC50 in experiment [5] of 2700 nM. As to `COc1cc(=O)oc(/C=C/C=C/C=C/C(C)=C/[C@]2(C)O[C@H](C)[C@](C)(O)[C@@H]2O)c1C`, the IC50 worked out at 6000 nM with MCF7 [6] and 8200 nM in the experiment on A2780 [7]. For `COc1ccc([C@@]23Oc4cc5c(c(OC)c4[C@]2(O)[C@H](O)[C@H](C(N)=O)[C@H]3c2ccccc2)[C@H]2OC[C@H]([C@H](O)CO)O[C@H]2O5)cc1`, the half-maximal inhibitory concentration (IC50) (in the experiment with HT-29 [8]; in experiment [9]) was above 10000 nM each time. Consider `CO[C@H]1[C@H](O[C@H]2CC[C@]3(C=O)[C@H]4CC[C@]5(C)[C@](O)(C6=CC(=O)OC6)CC[C@]5(O)[C@@H]4CC[C@]3(O)C2)O[C@H](C)[C@H](O)[C@@H]1OC`, for which the IC50 with OVCAR-3, in the experiment with MDA-MB-435 [10] and in the experiment on HT-29 [11] was above 10000 nM throughout. On to `CCCC[C@H]1CCCC[C@H](C)[C@@H](O[C@H]2OC[C@@H](O)[C@@H](O)[C@H]2O)c2cc(O)c(c(O)c2)[C@@H](CCCC)CCCC[C@H](C)[C@@H](O[C@@H]2OC[C@@H](O)[C@@H](O)[C@H]2O)c2cc(O)c1c(O)c2`, for which the half-maximal inhibitory concentration (IC50) with MDA-MB-231 [3] and with MDA-MB-435 [4] was 600 nM in each case. `C[C@@H]1CCCCC[C@H](CCCCO)c2c(O)cc(cc2O)[C@H](C)CCCCC[C@H](CCCO)c2c(O)cc1cc2O`: the IC50 in the experiment with MDA-MB-231 [12] was 1000 nM. In the case of `CCCCC(Cl)CCCC[C@H](C)[C@@H](O[C@@H]1OC[C@@H](O)[C@@H](O)[C@H]1O)c1cc(O)c([C@@H](CCCC)CCCC[C@H](O)[C@@H](OC(C)=O)c2cc(O)cc(O)c2)c(O)c1` (stereo partly drawn), the IC50 with MDA-MB-231 [3] and in the experiment with MDA-MB-435 [4] was above 25000 nM in each case. With `CCCC[C@H]1CCCCC[C@@H](C)c2cc(O)c(c(O)c2)[C@@H](CCC)CCCCC[C@@H](C)c2cc(O)c1c(O)c2`, in the experiment on MDA-MB-231 [12], the IC50 turned out to be 1000 nM. Turning to `CCC[C@H]1CCCCC[C@@H](C)c2cc(O)c(c(O)c2)[C@@H](CCCCO)CCCCC[C@@H](C)c2cc(O)c1c(O)c2`, in the experiment with MDA-MB-231 [12], the 50% inhibitory concentration (IC50) stood at 1000 nM. `CC[C@H](C)[C@@H]1NC(=O)[C@@H](CCC(N)=O)NC(=O)CNC(=O)[C@H](Cc2ccc(O)cc2)/N=C\[C@H](CC(C)C)NC(=O)[C@H](C(C)C)NC(=O)[C@H](CO)NC1=O` came in with an IC50 against 20S proteasome of 96 nM. Turning to `COc1ccc([C@@]23Oc4cc(OC)cc(OC)c4[C@]2(O)[C@H](O)[C@H](C(N)=O)[C@H]3c2ccccc2)cc1` [DIDESMETHYLROCAGLAMIDE], the IC50 with HT-29 [8] worked out at 21 nM.
